In US20250352577A1, “TUMOR NEOANTIGENIC PEPTIDES AND USES THEREOF” (MNEMO THERAPEUTICS, priority 2021, published 2025):
“Also recorded” adds a separate entry of the source.

T1: TE-exon fusion (JET / chimeric) transcript-derived peptide, LUAD (peptide 53) peptide on HLA-A*02:01 (human)
T1 peptide: MLVTWELAL

T2: TE-exon fusion (JET / chimeric) transcript-derived peptide, LUAD (peptide 17) peptide on HLA-A*02:01 (human)
T2 peptide: LLDRFGYHV

B1: TCR number 4 (Table 4bis) (TCR)
alpha TRAV35*01 TRAJ54*01 CDR3: CAGQLAGAQKLVF
beta TRBV13*01 TRBJ2-5*01 CDR3: CASSPSRDGQETQYF
B2: TCR number 1 (Table 4bis) (TCR)
alpha TRAV41*01 TRAJ34*01 CDR3: CAVLLDNTDKLIF
beta TRBV6-5*01 TRBJ-2*01 CDR3: CASSRLQGALELFF

What was measured:
[1] = tested on: CD8+ T cells from HLA-A2+ healthy donors; experiment: Priming of naive CTLs (immunogenicity assay) with two-colour tetramer staining; assay type: cell-based, human; conditions: for percentage of tetramer positive cells among total CD8+ T cells compared to control: one donor, control co-culture without peptides; for specific CD8+ T cell expansion (immunogenicity): total of 6 healthy donors, FIG. 11A
Procedure: Priming of naïve CTLs. […] CD14+, CD4+ and CD8+ cells were purified by positive selection using magnetic beads (Miltenyi Biotec). While CD4+ and CD8+ T cells were cryopreserved until the experiment day, CD14+ fraction was cultured in the presence of IL-4 (50 ng/mL) and GM-CSF (10 ng/mL) at 10^6 cells/mL during 5 days to obtain moDCs. After this period of time, the moDCs were maturated with LPS and incubated with synthetic ER-derived peptides at a final concentration of 1 μg/mL for 2 hours.
Tetramer Staining. Cells were resuspended in PBS, stained with Live/Dead Aqua-405 nm (ThermoFisher) during 20 minutes at 4° C. and washed once. After that, cells were resuspended in PBS-1% BSA containing the mix of SA-coupled tetramers and incubated in the dark at room temperature during 20 minutes. Without further washing, surface antibodies were added in PBS-1% BSA and cells were incubated 20 minutes in the dark at 4° C. […] Finally, cells were washed twice and resuspended in FACS buffer for flow cytometry analysis.
Priming assays were thus performed to test the ability of identified peptides to expand specific cytotoxic T cells. […] After loading the moDCs with a mix of synthetic peptides, autologous co-culture was performed with CD4+ and CD8+ T cells. Finally, the expansion of specific CD8+ T cells was analysed by flow cytometry using two-colours tetramer staining. As a control of specific expansion, the co-culture was performed in the absence of peptides.
The same experiment was performed in order to evaluate the response in additional 5 donors. […] As a positive of expansions, mutated Melan-A peptide ([…]) were used.

[2] = tested on: CD8+ T cells of LUAD patients; experiment: Tetramer staining of CD8+ T cells from LUAD patient samples and TILs; assay type: cell-based, human; conditions: TILs expanded with peptide mix + IL-2 or IL-2 only
Procedure: Tetramer Staining. Cells were resuspended in PBS, stained with Live/Dead Aqua-405 nm (ThermoFisher) during 20 minutes at 4° C. and washed once. After that, cells were resuspended in PBS-1% BSA containing the mix of SA-coupled tetramers and incubated in the dark at room temperature during 20 minutes. Without further washing, surface antibodies were added in PBS-1% BSA and cells were incubated 20 minutes in the dark at 4° C. Surface antibodies were a combination of anti-CD3-BV650+ anti-CD8-PECy7 in combination with anti-CCR7-AF700+ anti-CD45RA-BUV395 when required. Finally, cells were washed twice and resuspended in FACS buffer for flow cytometry analysis.
Tissues and Blood samples. […]
Tumor infiltrating lymphocytes (TILs) cultures. […] Cells were feed/split as necessary during 15-20 days and cryopreserve or analyzed for tetramer staining.
In a first set of experiments tumor infiltrating lymphocytes (TILs) expanded with a mix of TE-derived peptides and Il-2, or only with Il-2, were analyzed by tetramer staining. […]
In a second cohort of 5 primary, untreated, LUAD tumor, juxta-tumor, tumor-draining lymph node and blood samples from LUAD cancer HLA-A2+ patients were analyzed. […]

[3] = target: T1, TE-exon fusion (JET / chimeric) …; experiment: multimer staining
[4] = target: T2, TE-exon fusion (JET / chimeric) …; experiment: multimer staining

| Molecule | specific CD8+ T cell expansion (immunogenicity) [1] | further results |
| --- | --- | --- |
| AILPKANTV | specific CD8+ T expansions | percentage of tetramer positive cells among total CD8+ T cells compared to control [1]: increase in at least one magnitude order |
| AMDGKELSL | specific CD8+ T expansions |  |
| FLGTRVTRV | specific CD8+ T expansions |  |
| FLIVAEILI |  | percentage of tetramer positive cells among total CD8+ T cells compared to control [1]: increase in at least one magnitude order |
| GLLNISHTA | specific CD8+ T expansions |  |
| GLPSHVELA | specific CD8+ T expansions; also recorded: immunogenic | tetramer positive CD8+ T cells in TILs of LUAD patients [2]: TILs recognizing |
| ILHSLVTGV | specific CD8+ T expansions |  |
| ILSGYGPCV | specific CD8+ T expansions |  |
| ILTASITSI | specific CD8+ T expansions |  |
| LLDRFGYHV | specific CD8+ T expansions |  |
| LLGETKVYV | specific CD8+ T expansions | percentage of tetramer positive cells among total CD8+ T cells compared to control [1]: increase in at least one magnitude order |
| LLHLESFLV | specific CD8+ T expansions |  |
| LLTSWHLYL | specific CD8+ T expansions |  |
| MLMKTVWQA | specific CD8+ T expansions |  |
| MLVTWELAL | specific CD8+ T expansions |  |
| RLADHLSFC | specific CD8+ T expansions; also recorded: immunogenic | percentage of tetramer positive cells among total CD8+ T cells compared to control [1]: increase in at least one magnitude order |
| RLLHLESFL | specific CD8+ T expansions | percentage of tetramer positive cells among total CD8+ T cells compared to control [1]: increase in at least one magnitude order |
| RQAPGFHHA | specific CD8+ T expansions |  |
| SLMQSGSPV | specific CD8+ T expansions |  |
| VLLTNTIWL | specific CD8+ T expansions |  |
| VLMWTMAHL | specific CD8+ T expansions |  |
| YLPYFLKSL | specific CD8+ T expansions |  |
| YLQGLPLPL | specific CD8+ T expansions |  |
| YLWTTFFPL | specific CD8+ T expansions | percentage of tetramer positive cells among total CD8+ T cells compared to control [1]: increase in at least one magnitude order |
| B1 |  | binding result [3]: recognises |
| B2 |  | binding result [4]: recognises |
